We go through 1 molecule from patent publication US11261152B2, “Inhibitors of the N-terminal domain of the androgen receptor” (The Regents of the University of California, priority 2017, dated 2022).

SMILES strings stand for the structures. Structures can show the parent of a compound that is named as a salt.

Type in all cases: cell-based
Experiment [1] deals with c-Jun TAD. Nature of the experiment: JUN-TAD fused to GAL4 DNA-binding domain reporter assay. The following applies: Table 3 grade HIGH/MED/LOW, grades not defined. The text has this:
The inhibitory activity of JN018 was further evaluated in experiments in which the AR transactivation domain (TAD) or the c-Jun or CREB TAD was fused to the heterologous GAL4 DNA-binding domain and thereby drive reporter gene expression governed by the GAL4 response element (FIG. 1).

The subject of experiment [2] is prostate cancer cell lines. Nature of the experiment: Growth inhibition of prostate cancer cell lines (IC50).
In experiment [3] the target is T1, full length AR and AR splice variants (AR-V7, AR Δ567) (Homo sapiens, UniProt P10275).
T1 construct: endogenous in cells; host or cells: LNCaP-AR (engineered to overexpress full length AR), 22Rv1 (endogenous full length AR and AR-V7), PC3 stably expressing AR Δ567
T1 sequence (P10275 1-920): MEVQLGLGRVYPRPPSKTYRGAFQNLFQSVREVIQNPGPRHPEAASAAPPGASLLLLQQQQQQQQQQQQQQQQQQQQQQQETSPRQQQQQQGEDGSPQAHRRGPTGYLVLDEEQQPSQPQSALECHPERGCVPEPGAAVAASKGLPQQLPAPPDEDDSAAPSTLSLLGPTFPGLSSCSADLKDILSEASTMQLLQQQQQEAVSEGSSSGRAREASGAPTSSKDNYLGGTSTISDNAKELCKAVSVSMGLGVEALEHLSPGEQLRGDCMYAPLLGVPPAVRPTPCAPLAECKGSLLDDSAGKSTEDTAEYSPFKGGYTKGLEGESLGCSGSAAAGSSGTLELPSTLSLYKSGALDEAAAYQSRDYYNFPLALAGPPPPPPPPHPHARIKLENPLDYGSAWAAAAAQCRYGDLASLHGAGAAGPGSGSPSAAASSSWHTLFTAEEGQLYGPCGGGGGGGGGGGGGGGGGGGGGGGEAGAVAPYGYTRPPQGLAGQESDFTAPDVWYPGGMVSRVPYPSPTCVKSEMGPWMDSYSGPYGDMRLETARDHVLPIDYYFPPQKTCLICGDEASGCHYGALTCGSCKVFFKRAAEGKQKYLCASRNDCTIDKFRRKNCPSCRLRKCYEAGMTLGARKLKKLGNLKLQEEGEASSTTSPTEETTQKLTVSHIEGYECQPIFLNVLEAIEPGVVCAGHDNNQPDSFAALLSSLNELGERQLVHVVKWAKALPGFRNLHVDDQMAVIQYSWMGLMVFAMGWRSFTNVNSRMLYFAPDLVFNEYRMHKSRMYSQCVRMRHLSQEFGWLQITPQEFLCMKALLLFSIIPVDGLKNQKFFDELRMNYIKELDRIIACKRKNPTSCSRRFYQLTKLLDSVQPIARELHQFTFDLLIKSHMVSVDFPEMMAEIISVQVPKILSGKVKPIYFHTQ
T1 sequence (P10275 1-644 isoform P10275-3): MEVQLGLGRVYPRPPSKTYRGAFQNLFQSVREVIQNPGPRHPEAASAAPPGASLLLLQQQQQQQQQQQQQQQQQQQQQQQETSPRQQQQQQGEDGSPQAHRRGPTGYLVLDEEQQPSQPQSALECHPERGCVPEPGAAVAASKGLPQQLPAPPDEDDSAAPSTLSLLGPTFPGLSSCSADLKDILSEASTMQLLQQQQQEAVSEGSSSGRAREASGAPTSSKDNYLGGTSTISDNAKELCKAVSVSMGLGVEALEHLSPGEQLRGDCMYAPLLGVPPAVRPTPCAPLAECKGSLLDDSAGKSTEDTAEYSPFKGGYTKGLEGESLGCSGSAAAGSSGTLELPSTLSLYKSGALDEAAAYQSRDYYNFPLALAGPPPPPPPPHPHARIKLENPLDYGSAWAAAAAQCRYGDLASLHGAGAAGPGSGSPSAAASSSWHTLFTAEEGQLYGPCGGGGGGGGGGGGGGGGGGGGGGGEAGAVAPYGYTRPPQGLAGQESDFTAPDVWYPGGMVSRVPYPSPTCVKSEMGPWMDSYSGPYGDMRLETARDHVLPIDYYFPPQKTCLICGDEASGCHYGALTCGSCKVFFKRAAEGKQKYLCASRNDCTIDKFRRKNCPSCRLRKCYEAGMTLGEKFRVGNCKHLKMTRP
T1 sequence (P10275 with tags, fused parts or gaps limits assumed): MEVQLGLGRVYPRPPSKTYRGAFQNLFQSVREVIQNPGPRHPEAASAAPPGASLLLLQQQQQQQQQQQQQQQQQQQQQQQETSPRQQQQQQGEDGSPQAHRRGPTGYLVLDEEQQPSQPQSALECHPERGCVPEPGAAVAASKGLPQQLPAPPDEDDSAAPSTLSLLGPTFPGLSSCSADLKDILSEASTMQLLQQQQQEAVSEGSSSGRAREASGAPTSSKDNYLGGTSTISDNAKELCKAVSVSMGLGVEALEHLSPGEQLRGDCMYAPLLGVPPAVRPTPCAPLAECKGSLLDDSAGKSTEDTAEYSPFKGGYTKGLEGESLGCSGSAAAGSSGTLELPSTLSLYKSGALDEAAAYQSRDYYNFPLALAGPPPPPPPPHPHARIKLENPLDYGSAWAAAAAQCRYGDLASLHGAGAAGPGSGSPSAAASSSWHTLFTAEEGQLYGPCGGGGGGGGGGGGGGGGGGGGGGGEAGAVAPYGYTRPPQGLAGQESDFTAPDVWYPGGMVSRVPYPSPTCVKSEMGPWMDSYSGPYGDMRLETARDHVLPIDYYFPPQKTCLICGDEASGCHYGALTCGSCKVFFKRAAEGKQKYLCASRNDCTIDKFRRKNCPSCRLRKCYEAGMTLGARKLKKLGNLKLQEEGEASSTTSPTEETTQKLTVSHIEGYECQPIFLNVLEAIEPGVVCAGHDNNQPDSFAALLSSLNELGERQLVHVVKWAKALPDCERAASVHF
Nature of the experiment: AR degradation, protein stability experiments with cycloheximide (Western blot). As to the method:
A) LNCaP-AR cells were exposed to the indicated compounds or vehicle (DMSO) in the presence of cycloheximide for the indicated times. Western blots were performed for the indicated proteins. B) Same as A but in 22Rv1 cells.

Consider `C=C(CN(C)Cc1ccccc1)C(=O)/C(=C/c1ccc(Cl)cc1)c1ccccc1` [JN018, (E)-4-((Benzyl(methyl)amino)methyl)-1-(4-chlorophenyl)-2-phenylpenta-1,4-dien-3-one hydrochloride], for which the JUN-TAD result in experiment [1] is reported as “LOW”. In experiment [2], this molecule gave an IC50 of 1.5 µM. Besides, the “IC50 for AR Degradation” value in experiment [3] was ~2.0 µM. Besides, the “degradation of AR splice variant AR Δ567” value in experiment [3] (stably introduced into PC3 cells) is on record as “enhanced degradation”.
